Counter-ions that a name gives are not always drawn.

One data set relates to HEK293T cells. The data set can be described thus: XTT assay in HEK293T cells. In kind it is cell-based. The procedure: To evaluate whether the compound I biological activity can imitate TAM67 specificity, three different transcriptional promoter reporters were used, AP-1, NFκB, and SRE (Serum response element) in luciferase reporter assays (FIG. 1A: The transfected cells were pre-treated with varied concentrations of compound I or DMSO for 1 hour before 18 hours stimulation by TPA (10 ng/ml) or DMSO as vehicle. An asterisk (*) indicates a separate experiment with NFκB dependent luciferase only. Assays were performed with two independent experiments each in quadruplicate.). All three activities were induced by TPA but only induction of AP-I and NFκB were inhibited by TAM67. The SRE reporter was used as a specificity control and indicator of cell proliferation. TPA-induced SRE activity was not repressed by TAM67 when coexpressed with the SRE-Luc reporter in HEK293 cells. The same concentration (10 ng/ml, 16.2 nM) and incubation time (18 hrs) were used for TPA induction as previously used for the high throughput screen (HTS) (Ruocco et al., J. Biomol. Screen., 2007, 12, 133-9) along with 1 h pretreatment of compound I. The screening results had tested concentrations as high as 40 μM compound I with cell numbers showing 95.5+/−6.2% of DMSO control (ave+/− sd, n=3) by the XTT assay in HEK293T cells.
(In general: Tetrazolium assays rely on reduction of a dye to a coloured formazan, in cell work by metabolically active cells.)

A further data set deals with IKKγ. The data set can be described thus: Immunoblot of phosphorylated IKKγ in HEK293 cells. In kind it is cell-based. The conditions noted are these: compound I pretreatment. On the procedure:
To measure endogenous level of several proteins in response to TPA induction and compound I, HEK293 cells were lysed with RIPA buffer (10 mM Tris-HCl pH 7.5, 1 mM EDTA, 0.1% sodium dodecyl sulfate, 0.1% deoxycholate, and protease inhibitor). Whole cell extracts were subjected to immunoblot analysis with the following antibodies: p65 (F-6), p50 (E-10), p52 (C-5), RelB (C-19), IκBα (C-21), PCNA (F-2) were obtained from Santa Cruz Biotechnology (Santa Cruz, Calif.). IKKα, IKKβ, IKKγ, phospho-IκBα, phospho-IKKα/β, phospho-IKKγ, pohospho-Stat3 (Tyr 705 and Ser 727), phospho-p65 (Ser536 and Ser276), phospho-p44/42, phospho-JNKs were purchased from Cell Signaling (Danvers, Mass.), and α-tubulin from Sigma (St. Louis, Mo.). Nuclear and cytoplasmic extracts were prepared with HEK293 cells by NE-PER Nuclear and Cytoplasmic Extraction Reagents (Pierce Biotechnology, Rockford, Ill.) according to the manufacturer's protocol.
To characterize the activity of compound I in targeting events upstream of NFκB, endogenous levels of kinases involved in NFκB activation were examined by immunoblot analysis. The well-established upstream regulators of NFκB activation are IKKα, IKKβ, and IκBα. […] Moreover, the phosphorylation of IκBα was inhibited even at 1.1 μM showing dose-dependent decrease by compound I pretreatment. […]
For orientation: A western blot detects proteins with antibodies after separation by electrophoresis.

The target in another data set is IKKα (Homo sapiens, UniProt O15111). The data set can be described thus: Off-chip incubation mobility-shift kinase assay, IKKα. In kind it is biochemical. The conditions noted are these: fully activated, phosphorylated IKKα; 1.25, 2.50, 5.00, and 10.00 μM. The procedure:
In an attempt to determine whether compound I interferes with ATP binding to the catalytic site, the activity of compound I was measured with fully activated, phosphorylated IKKα or IKKβ. […] However, whether this compound interacts outside of the ATP binding pocket of IKK as an ATP non-competitive inhibitor similar to BMS-345541 is unknown. […] Luciferase activities with TPA induction alone were set at 100% and the relative activities with TPA in the presence of compounds are shown.

Another data set deals with COX-2 promoter. In words: COX-2 promoter luciferase reporter assay in HEK293 cells. To be noted: TPA 10 ng/ml 18 hours. It counts as cell-based, human. The procedure:
All expression plasmids were transiently transfected into HEK293 cells in a 96-well plate (0.1 μg/well) by using Effectene transfection reagent (Qiagen, Valencia, Calif.) according to the manufacturer's manual. HEK293 cells were maintained in Dulbecco's modified Eagle medium (Sigma, St. Louis, Mo.) supplemented with 10% fetal bovine serum (Atlanta Biologicals, Lawrenceville, Ga.) and incubated at 37° C. in a 5% CO2 incubator. After 24 hrs incubation, the medium was changed to DMEM with 0.2% FBS, and the transfectants were exposed to various concentrations of compound I and TPA (10 ng/ml). Cells were lysed with passive lysis buffer and the luciferase assay was performed using the Firefly-Luciferase reporter assay system (Promega, Madison, Wis.) and MLX Luminometer (Dynex Technology, Chantilly, Va.).
Three different luciferase reporter genes, AP-1 reporter containing four times TRE consensus originated from GCN4 and SRE reporter purchased from Stratagene (La Jolla, Calif.) respectively are as described previously (Suzukawa et al., Environ. Health Perspect., 2002, 110, 865-70). […]
Inhibition of NFκB transactivation would be expected to result in suppressed expression of genes whose transcription depends on NFκB. Quantitative RT-PCR was used to measure endogenous levels of IL-6 mRNA, transcribed from a gene whose transcription depends on NFκB but not AP-1. […]
(In a reporter assay the amount or activity of a reporter protein is the signal.)

Sequence of IKKα (O15111 whole entry, species assumed): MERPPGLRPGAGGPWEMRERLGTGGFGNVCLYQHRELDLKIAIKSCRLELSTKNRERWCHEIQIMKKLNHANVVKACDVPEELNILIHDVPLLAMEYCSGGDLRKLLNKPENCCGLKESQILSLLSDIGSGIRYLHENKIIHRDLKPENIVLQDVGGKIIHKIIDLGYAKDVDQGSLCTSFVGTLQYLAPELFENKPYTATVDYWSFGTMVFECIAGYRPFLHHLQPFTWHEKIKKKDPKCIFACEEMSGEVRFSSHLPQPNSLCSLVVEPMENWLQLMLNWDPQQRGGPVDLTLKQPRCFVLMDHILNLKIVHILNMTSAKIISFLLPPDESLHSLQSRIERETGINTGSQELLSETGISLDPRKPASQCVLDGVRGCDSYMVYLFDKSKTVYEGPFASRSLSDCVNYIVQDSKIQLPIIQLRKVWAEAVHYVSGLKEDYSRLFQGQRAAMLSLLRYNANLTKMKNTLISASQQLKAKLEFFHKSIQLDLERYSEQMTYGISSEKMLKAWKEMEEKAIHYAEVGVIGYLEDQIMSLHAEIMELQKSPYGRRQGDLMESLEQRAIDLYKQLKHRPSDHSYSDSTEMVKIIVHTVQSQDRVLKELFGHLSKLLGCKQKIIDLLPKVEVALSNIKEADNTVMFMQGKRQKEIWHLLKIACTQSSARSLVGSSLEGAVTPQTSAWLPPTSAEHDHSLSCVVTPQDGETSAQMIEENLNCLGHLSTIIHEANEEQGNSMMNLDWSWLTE

For the molecule `Cc1cc(N)ccc1N=Nc1ccc(S(=O)(=O)CCOS(=O)(=O)O)cc1` [compound I, 2-(4-((4-amino-2-methylphenyl)diazenyl)phenylsulfonyl)ethyl hydrogen sulfate], the “Cell numbers, % of DMSO control (ave+/− sd, n=3)” value in the data set on HEK293T cells (40 μM, XTT assay, HEK293T) is reported as 95.5+/−6.2%. In addition, in the data set on HEK293T cells (HEK293 cells), the “Cytotoxic or cytostatic activity” value is “neither cytotoxic nor cytostatic activity”. The “Phosphorylation of IKKγ” value with IKKγ is recorded as “did not change”. Besides, the “Inhibition of IKKα activity, phosphorylation of a peptide substrate” value at IKKα was “does not inhibit”. Also, the “COX-2 luciferase activity” value with COX-2 promoter was “dose-dependent inhibition”.

The record behind these values is US8729053B2, “Nuclear factor kappa B pathway inhibitor composition and use of same” (The United States of America, as represented by the …, priority 2008, dated 2014).
